From PubChem BioAssay AID1963979 (Molecular Pharmacology Branch, DTP, NCI, 2024)
One block for each molecule: values may come before it.

Tested on: 361931-004-R-J1-PDC multicell spheroid viability
Experiment: Anticancer human tumor 361931-004-R-J1-PDC patient-derived colon adenocarcinoma cell line growth inhibition [PI3K]
Conditions: for IC50: curve of first compound; for viability, T/C: stronger effect = lower value
How it was run: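 Stroma-containing spheroids: tumor line, pooled-donor HUVEC, hMSC. Treatments: targeted agents with PI3K inhibitors. Dosing: clinically relevant, half-log spacing, 10 microM ceiling without known Cmax. Read-out: cell viability.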

[1] = second compound 0.0316 µM, first compound 0.0316 µM
[2] = second compound 0.0316 µM, first compound 0.1 µM
[3] = second compound 0.1 µM, first compound 0.0316 µM
[4] = second compound 0.1 µM, first compound 0.1 µM
[5] = second compound 0.316 µM, first compound 0.0316 µM
[6] = second compound 0.316 µM, first compound 0.1 µM
[7] = second compound 1 µM, first compound 0.0316 µM
[8] = second compound 1 µM, first compound 0.1 µM
[9] = second compound 3.16 µM, first compound 0.0316 µM
[10] = second compound 3.16 µM, first compound 0.1 µM
[11] = second compound 10 µM, first compound 0.0316 µM
[12] = second compound 10 µM, first compound 0.1 µM
[13] = second compound 0.0316 µM, first compound 0.316 µM
[14] = second compound 0.0316 µM, first compound 1 µM
[15] = second compound 0.0316 µM, first compound 3.16 µM
[16] = second compound 0.0316 µM, first compound 10 µM
[17] = second compound 0.1 µM, first compound 0.316 µM
[18] = second compound 0.1 µM, first compound 1 µM
[19] = second compound 0.1 µM, first compound 3.16 µM
[20] = second compound 0.1 µM, first compound 10 µM
[21] = second compound 0.316 µM, first compound 0.316 µM
[22] = second compound 0.316 µM, first compound 1 µM
[23] = second compound 0.316 µM, first compound 3.16 µM
[24] = second compound 0.316 µM, first compound 10 µM
[25] = second compound 1 µM, first compound 0.316 µM
[26] = second compound 1 µM, first compound 1 µM
[27] = second compound 1 µM, first compound 3.16 µM
[28] = second compound 1 µM, first compound 10 µM
[29] = second compound 3.16 µM, first compound 0.316 µM
[30] = second compound 3.16 µM, first compound 1 µM
[31] = second compound 3.16 µM, first compound 3.16 µM
[32] = second compound 3.16 µM, first compound 10 µM
[33] = second compound 10 µM, first compound 0.316 µM
[34] = second compound 10 µM, first compound 1 µM
[35] = second compound 10 µM, first compound 3.16 µM
[36] = second compound 10 µM, first compound 10 µM
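Also: spheroids exposed to agents for seven days before readout.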

IC50 (second compound 0.0316 µM): > 0.1 µM | IC50 (second compound 0.1 µM): > 0.1 µM | IC50 (second compound 0.316 µM): > 0.1 µM | IC50 (second compound 1 µM): > 0.1 µM | IC50 (second compound 3.16 µM): > 0.1 µM | IC50 (second compound 10 µM): > 0.1 µM
Compound: CC(=O)c1c(C)c2cnc(Nc3ccc(N4CCNCC4)cn3)nc2n(C2CCCC2)c1=O + CC(Nc1ncnc2nc[nH]c12)c1cc2cccc(Cl)c2c(=O)n1-c1ccccc1
viability, T/C (second compound 0.0316 µM, first compound 0.000316 µM): 98.3% | viability, T/C (second compound 0.0316 µM, first compound 0.001 µM): 103% | viability, T/C (second compound 0.0316 µM, first compound 0.00316 µM): 97.5% | viability, T/C (second compound 0.0316 µM, first compound 0.01 µM): 97.2% | viability, T/C [1]: 102% | viability, T/C [2]: 93.2% | viability, T/C (second compound 0.1 µM, first compound 0.000316 µM): 103% | viability, T/C (second compound 0.1 µM, first compound 0.001 µM): 103% | viability, T/C (second compound 0.1 µM, first compound 0.00316 µM): 98.4% | viability, T/C (second compound 0.1 µM, first compound 0.01 µM): 104% | viability, T/C [3]: 99.5% | viability, T/C [4]: 98.4% | viability, T/C (second compound 0.316 µM, first compound 0.000316 µM): 108% | viability, T/C (second compound 0.316 µM, first compound 0.001 µM): 97.7% | viability, T/C (second compound 0.316 µM, first compound 0.00316 µM): 105% | viability, T/C (second compound 0.316 µM, first compound 0.01 µM): 97.9% | viability, T/C [5]: 103% | viability, T/C [6]: 97.5% | viability, T/C (second compound 1 µM, first compound 0.000316 µM): 101% | viability, T/C (second compound 1 µM, first compound 0.001 µM): 100% | viability, T/C (second compound 1 µM, first compound 0.00316 µM): 101% | viability, T/C (second compound 1 µM, first compound 0.01 µM): 105% | viability, T/C [7]: 108% | viability, T/C [8]: 89% | viability, T/C (second compound 3.16 µM, first compound 0.000316 µM): 96.2% | viability, T/C (second compound 3.16 µM, first compound 0.001 µM): 100% | viability, T/C (second compound 3.16 µM, first compound 0.00316 µM): 97.2% | viability, T/C (second compound 3.16 µM, first compound 0.01 µM): 93.7% | viability, T/C [9]: 100% | viability, T/C [10]: 81.3% | viability, T/C (second compound 10 µM, first compound 0.000316 µM): 92.7% | viability, T/C (second compound 10 µM, first compound 0.001 µM): 107% | viability, T/C (second compound 10 µM, first compound 0.00316 µM): 96.5% | viability, T/C (second compound 10 µM, first compound 0.01 µM): 94.1% | viability, T/C [11]: 101% | viability, T/C [12]: 80.5%

IC50 (second compound 0.0316 µM): 5.29 µM | IC50 (second compound 0.1 µM): 5.19 µM | IC50 (second compound 0.316 µM): 5.59 µM | IC50 (second compound 1 µM): 5.25 µM | IC50 (second compound 3.16 µM): 5.52 µM | IC50 (second compound 10 µM): 4.9 µM
Compound: CCCS(=O)(=O)Nc1ccc(F)c(C(=O)c2c[nH]c3ncc(-c4ccc(Cl)cc4)cc23)c1F + CC(Nc1ncnc2nc[nH]c12)c1cc2cccc(Cl)c2c(=O)n1-c1ccccc1
viability, T/C [1]: 111% | viability, T/C [2]: 97.4% | viability, T/C [13]: 96.4% | viability, T/C [14]: 97.3% | viability, T/C [15]: 84.7% | viability, T/C [16]: 7.53% | viability, T/C [3]: 108% | viability, T/C [4]: 101% | viability, T/C [17]: 94.3% | viability, T/C [18]: 89.2% | viability, T/C [19]: 84.9% | viability, T/C [20]: 6.96% | viability, T/C [5]: 105% | viability, T/C [6]: 101% | viability, T/C [21]: 96.1% | viability, T/C [22]: 90.9% | viability, T/C [23]: 92.1% | viability, T/C [24]: 6.91% | viability, T/C [7]: 100% | viability, T/C [8]: 99.7% | viability, T/C [25]: 94.9% | viability, T/C [26]: 96.8% | viability, T/C [27]: 83.5% | viability, T/C [28]: 7.4% | viability, T/C [9]: 98.8% | viability, T/C [10]: 102% | viability, T/C [29]: 103% | viability, T/C [30]: 95.5% | viability, T/C [31]: 90.1% | viability, T/C [32]: 7.12% | viability, T/C [11]: 99.3% | viability, T/C [12]: 101% | viability, T/C [33]: 98.1% | viability, T/C [34]: 88.3% | viability, T/C [35]: 78.1% | viability, T/C [36]: 7.3%

IC50 (second compound 0.0316 µM): > 10 µM | IC50 (second compound 0.1 µM): > 10 µM | IC50 (second compound 0.316 µM): > 10 µM | IC50 (second compound 1 µM): > 10 µM | IC50 (second compound 3.16 µM): > 10 µM | IC50 (second compound 10 µM): > 10 µM
Compound: CNC(=O)c1ccc(N2C(=S)N(c3ccc(C#N)c(C(F)(F)F)c3)C(=O)C2(C)C)cc1F + CC(Nc1ncnc2nc[nH]c12)c1cc2cccc(Cl)c2c(=O)n1-c1ccccc1
viability, T/C [1]: 97.8% | viability, T/C [2]: 103% | viability, T/C [13]: 97.7% | viability, T/C [14]: 96.6% | viability, T/C [15]: 103% | viability, T/C [16]: 85.7% | viability, T/C [3]: 110% | viability, T/C [4]: 102% | viability, T/C [17]: 97.8% | viability, T/C [18]: 93.7% | viability, T/C [19]: 106% | viability, T/C [20]: 103% | viability, T/C [5]: 102% | viability, T/C [6]: 93% | viability, T/C [21]: 97.9% | viability, T/C [22]: 105% | viability, T/C [23]: 101% | viability, T/C [24]: 97.3% | viability, T/C [7]: 101% | viability, T/C [8]: 106% | viability, T/C [25]: 99.4% | viability, T/C [26]: 104% | viability, T/C [27]: 106% | viability, T/C [28]: 97.2% | viability, T/C [9]: 101% | viability, T/C [10]: 109% | viability, T/C [29]: 97.1% | viability, T/C [30]: 101% | viability, T/C [31]: 104% | viability, T/C [32]: 93.4% | viability, T/C [11]: 107% | viability, T/C [12]: 105% | viability, T/C [33]: 104% | viability, T/C [34]: 94.2% | viability, T/C [35]: 112% | viability, T/C [36]: 96.3%

IC50 (second compound 0.0316 µM): > 3 µM | IC50 (second compound 0.1 µM): > 3 µM | IC50 (second compound 0.316 µM): > 3 µM | IC50 (second compound 1 µM): > 3 µM | IC50 (second compound 3.16 µM): 2.88 µM | IC50 (second compound 10 µM): 1.67 µM
Compound: Cn1cnc2c(F)c(Nc3ccc(Br)cc3Cl)c(C(=O)NOCCO)cc21 + CC(Nc1ncnc2nc[nH]c12)c1cc2cccc(Cl)c2c(=O)n1-c1ccccc1
viability, T/C (second compound 0.0316 µM, first compound 0.00949 µM): 98.1% | viability, T/C (second compound 0.0316 µM, first compound 0.03 µM): 95.3% | viability, T/C (second compound 0.0316 µM, first compound 0.0949 µM): 94% | viability, T/C (second compound 0.0316 µM, first compound 0.3 µM): 87.4% | viability, T/C (second compound 0.0316 µM, first compound 0.949 µM): 82% | viability, T/C (second compound 0.0316 µM, first compound 3 µM): 59.1% | viability, T/C (second compound 0.1 µM, first compound 0.00949 µM): 109% | viability, T/C (second compound 0.1 µM, first compound 0.03 µM): 96.2% | viability, T/C (second compound 0.1 µM, first compound 0.0949 µM): 94.2% | viability, T/C (second compound 0.1 µM, first compound 0.3 µM): 82.9% | viability, T/C (second compound 0.1 µM, first compound 0.949 µM): 87.4% | viability, T/C (second compound 0.1 µM, first compound 3 µM): 61.7% | viability, T/C (second compound 0.316 µM, first compound 0.00949 µM): 105% | viability, T/C (second compound 0.316 µM, first compound 0.03 µM): 102% | viability, T/C (second compound 0.316 µM, first compound 0.0949 µM): 88.8% | viability, T/C (second compound 0.316 µM, first compound 0.3 µM): 85.8% | viability, T/C (second compound 0.316 µM, first compound 0.949 µM): 82.9% | viability, T/C (second compound 0.316 µM, first compound 3 µM): 58.1% | viability, T/C (second compound 1 µM, first compound 0.00949 µM): 97.9% | viability, T/C (second compound 1 µM, first compound 0.03 µM): 94.4% | viability, T/C (second compound 1 µM, first compound 0.0949 µM): 93.3% | viability, T/C (second compound 1 µM, first compound 0.3 µM): 79.5% | viability, T/C (second compound 1 µM, first compound 0.949 µM): 81.4% | viability, T/C (second compound 1 µM, first compound 3 µM): 59.7% | viability, T/C (second compound 3.16 µM, first compound 0.00949 µM): 92.8% | viability, T/C (second compound 3.16 µM, first compound 0.03 µM): 96.2% | viability, T/C (second compound 3.16 µM, first compound 0.0949 µM): 90.9% | viability, T/C (second compound 3.16 µM, first compound 0.3 µM): 91.3% | viability, T/C (second compound 3.16 µM, first compound 0.949 µM): 77% | viability, T/C (second compound 3.16 µM, first compound 3 µM): 48.9% | viability, T/C (second compound 10 µM, first compound 0.00949 µM): 99.1% | viability, T/C (second compound 10 µM, first compound 0.03 µM): 92.4% | viability, T/C (second compound 10 µM, first compound 0.0949 µM): 86.9% | viability, T/C (second compound 10 µM, first compound 0.3 µM): 85.2% | viability, T/C (second compound 10 µM, first compound 0.949 µM): 66.5% | viability, T/C (second compound 10 µM, first compound 3 µM): 33%
